Assay results reported in the NIST ThermoML archive (doi:10.1016/j.jct.2014.08.023).
Numbers after ± are expanded uncertainties.

Conditions: Liquid, Vibrating tube method

CC(C)OC(C)C [diisopropyl ether]
mass density [kg/m3]
Conditions	293.15 K	298.15 K	313.15 K	333.15 K	353.19 K	373.24 K	393.29 K
100 kPa	723.5 ± 0.7	718.3 ± 0.7	702.4 ± 0.7	680.4 ± 0.7	–	–	–
1000 kPa	724.3 ± 0.7	719.5 ± 0.7	703.7 ± 0.7	682 ± 0.7	659.5 ± 0.7	635.5 ± 0.7	609.5 ± 0.7
5000 kPa	729.1 ± 0.7	724.5 ± 0.7	709.3 ± 0.7	688.8 ± 0.7	667.5 ± 0.7	645.5 ± 0.7	622.1 ± 0.8
10000 kPa	734.5 ± 0.7	730.2 ± 0.7	715.7 ± 0.7	696.3 ± 0.8	676.4 ± 0.8	656.1 ± 0.8	634.9 ± 0.8
15000 kPa	739.6 ± 0.8	735.6 ± 0.8	721.6 ± 0.8	703.1 ± 0.8	684.4 ± 0.8	665.3 ± 0.8	645.7 ± 0.8
20000 kPa	744.5 ± 0.8	740.5 ± 0.8	727.1 ± 0.8	709.3 ± 0.8	691.5 ± 0.8	673.4 ± 0.8	655.1 ± 0.8
25000 kPa	749 ± 0.8	745.2 ± 0.8	732 ± 0.8	715 ± 0.8	698 ± 0.8	680.8 ± 0.8	663.4 ± 0.8
30000 kPa	753.3 ± 0.8	749.6 ± 0.8	737.1 ± 0.8	720.4 ± 0.8	704 ± 0.8	687.6 ± 0.9	671 ± 0.9
35000 kPa	757.4 ± 0.8	753.7 ± 0.8	741.5 ± 0.8	725.5 ± 0.9	709.6 ± 0.9	693.8 ± 0.9	677.9 ± 0.9
40000 kPa	761.3 ± 0.8	757.7 ± 0.9	745.8 ± 0.9	730.2 ± 0.9	714.8 ± 0.9	699.6 ± 0.9	684.3 ± 0.9
45000 kPa	765 ± 0.9	761.6 ± 0.9	749.9 ± 0.9	734.7 ± 0.9	719.7 ± 0.9	705 ± 0.9	690.2 ± 1
50000 kPa	768.6 ± 0.9	765.2 ± 0.9	753.8 ± 0.9	739 ± 0.9	724.5 ± 0.9	710.1 ± 1	695.7 ± 1
55000 kPa	772.1 ± 0.9	768.7 ± 0.9	757.6 ± 0.9	743.1 ± 1	728.9 ± 1	714.9 ± 1	701 ± 1
60000 kPa	775.4 ± 0.9	772.1 ± 0.9	761.3 ± 1	747 ± 1	733.1 ± 1	719.5 ± 1	705.9 ± 1.1
65000 kPa	778.6 ± 1	775.4 ± 1	764.8 ± 1	750.8 ± 1	737.2 ± 1	723.9 ± 1.1	710.6 ± 1.1
70000 kPa	781.7 ± 1	778.5 ± 1	768.1 ± 1	754.3 ± 1	741.1 ± 1.1	728.1 ± 1.1	715.1 ± 1.1
80000 kPa	787.6 ± 1	784.5 ± 1	774.3 ± 1	761.2 ± 1.1	748.4 ± 1.1	735.9 ± 1.1	723.5 ± 1.2
90000 kPa	793.2 ± 1.1	790.3 ± 1.1	780.4 ± 1.1	767.7 ± 1.1	755.3 ± 1.2	743.2 ± 1.2	731.3 ± 1.2
100000 kPa	798.5 ± 1.1	795.6 ± 1.1	786 ± 1.1	773.6 ± 1.2	761.6 ± 1.2	750 ± 1.2	738.3 ± 1.3
110000 kPa	803.6 ± 1.1	800.8 ± 1.1	791.4 ± 1.2	779.3 ± 1.2	767.7 ± 1.3	756.3 ± 1.3	745.2 ± 1.3
120000 kPa	808.4 ± 1.2	805.6 ± 1.2	796.4 ± 1.2	784.6 ± 1.3	773.4 ± 1.3	762.3 ± 1.3	751.3 ± 1.4
130000 kPa	812.9 ± 1.2	810.3 ± 1.2	801.3 ± 1.3	789.8 ± 1.3	778.8 ± 1.3	768 ± 1.4	757.4 ± 1.4
140000 kPa	817.3 ± 1.2	814.6 ± 1.3	806 ± 1.3	794.7 ± 1.3	784 ± 1.4	773.3 ± 1.4	763 ± 1.5
